Measurements published in patent US9682111B2, “Method for preventing or treating neurodegenerative diseases” (priority 2012, dated 2017).

How the values were obtained:
PC12 cells = experiment: MPP+ induced injury of PC12 cells (PD model cells), MTT assay; assay type: cell-based, rat; design: Relative Cell Activity %: concentration or dose not given beside the values; conditions: PC12 cells with MPP+ and test substance, 24 hours; for average OD value: MTT assay, model group 1.061 ± 0.035, normal control 2.198 ± 0.046; for Relative Cell Activity %: MTT, normal control 100, model group 48.3
Protocol: PC12 cells (rat adrenal pheochromocytoma cell strain), which show many similar characters with dopaminergic neurons, was cultured in DMEM medium (which contains 5% horse serum, 5% fetal bovine serum, 100 U/mL penicillin, 100 µg/mL streptomycin), in an incubator under 37° C., saturated humidity, and 5% CO2. The medium was replaced every 2-3 days, and the cells were subcultured when the cells cover 70-80% area of the plate. Cells in log phase and under fine growth conditions were chosen, and inoculated in 96 well plate at 1-5×10^5 and 100 μl per well. After culturing under 37° C. for 24 hours and the cells adhere to the walls of the wells, MPP^+ medium was added to the model group, a medium containing MPP^+(1-methyl-4-phenylpyridinium) and semen biotae extracts/diterpenoid compounds were added to experimental group, and a medium with no drug was added to the blank control group. Then the media were continued to culture in the incubator for 24 hours. MTT assay was used to evaluate cell activity.

[1] = tested on: Caenorhaditiselegans transgene strain CL4176 (expressing Aβ protein); experiment: Paralysis of AD model elegans caused by Aβ (transgene strain CL4176); assay type: in vivo, Caenorhabditis elegans; conditions: 15° C. then 26° C., paralysis counted every three hours, blank control 49.503 ± 0.445
Protocol: Caenorhaditiselegans (Caenorhaditiselegans) transgene strain CL4176 (expressing Aβ protein under temperature inducing) were synchronized and cultured under 15° C. to L1 phase, and then added into coated OP50 microbial medium dishes containing the extracted drugs with different concentrations, at around 25/dish. Three dishes were used in one group. The dishes were cultured under 15° C. for 12 hours and then cultured under 26° C. 36 hours after the change of culturing temperature, the paralyses of the elegans were observed. Count every three hours until all the elegans was paralyzed.

[2] = tested on: pPD95.86::α-SYN transgenic C. elegans; experiment: Lifespan of α-SYN transgenic C. elegans (anti-elegan aging experiment); assay type: in vivo, Caenorhabditis elegans; conditions: α-syn transgenic elegans on NGM plates with OP50, 20° C.; α-syn model 11.8 ± 3.66, N2 16 ± 5.68
From the text: pPD95.86::α-SYN transgenic C. elegans were establish by Sun et al. and preserved in the Department of Neurosurgery, the First Affiliated Hospital of Sun Yat-sen University, China. The method for establishing the α-SYN transgenic C. elegans was described in detail by Sun et al. (Toxic effect of Parkinson's disease gene α-Synuclein on Caenorhabditis elegants. New Medicine, 2013, 44 (4): 273-277.)
In brief, a wild-human α-SYN cDNA were amplified by PCR and inserted into the plasmid pPD95.86. Transgenic plasmids were isolated and injected into the gonad of synchronized N2 C. elegants at a concentration of 100 ng/μl. The transgenic F2 (second generation) worms was selected and then mutated under UV radiation. The UV treated F2 worms were backcrossed to wild type worms to generate stable α-SYN transgenic lines. The α-SYN transgenic lines express α-SYN and therefore have shorter life span and impaired motor functions.
A solution containing E. coli OP50, and biotae extracts and diterpenoid compounds of different concentrations are coated onto NGM plates. N2 elegans are synchronized to L4 phase under 20° C. Three plates are employed in one experimental group, and each plate includes about 25 elegans. The number of live elegans is recorded every day, and the elegans are transferred into a new NGM plate when the food is used up or there is mold contamination. The experiment pends till all the elegans are dead.

C=C1CC[C@@H]2[C@](C)(CCC[C@]2(C)C(=O)O)[C@H]1CCC(C)=O [1-Naphthalenecarboxylic acid, decahydro-1,4a-dimethyl-6-methylene-5-(3-oxobutyl)-, (1S,4aR,5S,8aR)-]
average OD value (PC12 cells): 1.391 ± 0.038
Relative Cell Activity % (PC12 cells): 63.3%
Average Living Time [1]: 50.991 ± 0.568 h
Living time [2]: 14.35 ± 3.9 days

C=C1CC[C@@H]2[C@](C)(CCC[C@]2(C)C(=O)O)[C@H]1/C=C/C(C)=O [1-Naphthalenecarboxylic acid, decahydro-1,4a-dimethyl-6-methylene-5-[(1E)-3-oxo-1-butenyl]-, (1S,4aS,5S,8aR)-]
Living time [2]: 14.75 ± 2.22 days

CC(C)c1c(O)ccc2c1CCC1C2(C)C(=O)CC(O)C1(C)C (stereo not drawn) [1-oxo-3β-hydroxytotarol]
average OD value (PC12 cells): 1.448 ± 0.057
Relative Cell Activity % (PC12 cells): 65.9%
Average Living Time [1]: 53.478 ± 0.357 h
Living time [2]: 14.6 ± 3.63 days

C=CC1(C)C=C2C=CC3C(C)(C(=O)O)CCCC3(C)C2CC1 (stereo not shown) [6,7-Dehydrosandarapimaric Acid]
average OD value (PC12 cells): 1.435 ± 0.044
Relative Cell Activity % (PC12 cells): 65.3%
Average Living Time [1]: 52.435 ± 0.484 h
Living time [2]: 14.7 ± 2.7 days

C=CC1(C)C=C2C(O)CC3C(C)(C(=O)O)CCCC3(C)C2CC1 (stereo not drawn) [7α-Hydroxysandaracopimaric acid]
Average Living Time [1]: 53.067 ± 0.455 h
Living time [2]: 14.3 ± 3.01 days

C=C[C@@](C)(O)CCC1C(=C)C(O)CC2C(C)(C(=O)O)CCCC12C (stereo partly drawn) [7β,13S-dihydroxylabda-8(17),14-dien-19-oic acid]
average OD value (PC12 cells): 1.359 ± 0.045
Relative Cell Activity % (PC12 cells): 61.8%
Living time [2]: 13.7 ± 2.85 days

C=C1CCC2C(C)(C(=O)O)CCCC2(C)C1CC1(O)OCC(O)C1(C)O (stereo not shown) [12,13,14-trihydroxylabda-12,15-epoxy-8(17)-en-19-oic acid]
average OD value (PC12 cells): 1.404 ± 0.057
Relative Cell Activity % (PC12 cells): 63.9%
Living time [2]: 14 ± 3.67 days

C=CC(C)(O)C(O)CC1C(=C)CCC2C(C)(C(=O)O)CCCC12C (stereo not shown) [12,13-Dihydroxylabda-8(17),14-dien-19-oic acid]
Average Living Time [1]: 51.008 ± 0.434 h
Living time [2]: 14.15 ± 3.1 days

C=C[C@@](C)(O)CC[C@H]1C(=C)CC[C@@H]2[C@]1(C)CCC[C@]2(C)C(=O)O [13-Epicupressic acid]
Average Living Time [1]: 54.015 ± 0.432 h
Living time [2]: 13.7 ± 3.34 days

C=C1CCC2C(C)(C(=O)O)CCCC2(C)C1C/C=C(\C)[C@@H](O)CO (stereo partly drawn) [14(R),15-Dihydroxy-8(17),12(E)-labdadien-19-oic acid]
average OD value (PC12 cells): 1.346 ± 0.059
Relative Cell Activity % (PC12 cells): 61.2%
Living time [2]: 14.5 ± 3.76 days

C=C1CCC2C(C)(C(=O)OC)CCCC2(C)C1C/C=C/C (stereo not shown) [14,15-Bisnor-8(17),12E-labdadien-19-oic acid methyl ester]
average OD value (PC12 cells): 1.536 ± 0.035
Relative Cell Activity % (PC12 cells): 69.9%
Living time [2]: 14.8 ± 3.24 days

C=C1CCC2C(C)(C(=O)O)CCCC2(C)C1CCCC(=O)O (stereo not shown) [14,15-bisnor-8(17)-labdene-16,19-dioic acid]
average OD value (PC12 cells): 1.292 ± 0.072
Relative Cell Activity % (PC12 cells): 58.8%
Average Living Time [1]: 51.892 ± 0.322 h
Living time [2]: 14.35 ± 3.38 days

C=C1CCC2C(C)(C(=O)O)CCCC2(C)C1CC/C(=C\CO)CO (stereo not shown) [15,16-Dihydroxy-8(17),13(E)-labdadien-19-oic acid]
Average Living Time [1]: 51.217 ± 0.397 h
Living time [2]: 14.35 ± 2.62 days

C=C1CCC2C(C)(C(=O)O)CCCC2(C)C1CCC1=CC(O)OC1=O (stereo not shown) [15-Hydroxypinusolidic acid]
average OD value (PC12 cells): 1.585 ± 0.057
Relative Cell Activity % (PC12 cells): 72.1%
Average Living Time [1]: 51.575 ± 0.257 h
Living time [2]: 14.1 ± 4.68 days

C=C1CCC2C(C)(C(=O)O)CCCC2(C)C1CCC1=CC(OC)OC1=O (stereo not shown) [15-Methoxypinusolidic acid]
Average Living Time [1]: 55.012 ± 0.399 h
Living time [2]: 13.55 ± 4.05 days

C=C1CCC2C(C)(C(=O)O)CCCC2(C)C1CC1OCC=C1CC (stereo not shown) [16-Methyl-12,15-epoxy-8(17),13-labdadien-19-oic acid]
Average Living Time [1]: 54.336 ± 0.377 h
Living time [2]: 13.95 ± 3.9 days

C=C1CC[C@@H]2[C@](C)(CCC[C@]2(C)C(=O)O)[C@H]1CC[C@H](C)CCO [Imbricatolic acid]
Average Living Time [1]: 55.857 ± 0.428 h
Living time [2]: 14.25 ± 2.67 days

C=C1CC[C@@H]2[C@](C)(CCC[C@]2(C)C(=O)O)[C@H]1CC/C(C)=C/CO [Isocupressic acid]
Average Living Time [1]: 53.879 ± 0.414 h
Living time [2]: 14.85 ± 2.66 days

C=C[C@@]1(C)CC[C@H]2C(=CC[C@@H]3[C@]2(C)CCC[C@@]3(C)C(=O)O)C1 [Isopimaric acid]
Average Living Time [1]: 52.785 ± 0.432 h
Living time [2]: 14.9 ± 1.55 days

C=C1CC[C@@H]2[C@](C)(CCC[C@]2(C)C(=O)O)[C@H]1C/C=C(\C)C=O [Naphthalenecarboxylic acid, decahydro-1,4a-dimethyl-6-methylene-5-[(2E)-3-methyl-4-oxo-2-butenyl]-, (1S,4aR,5S,8aR)-]
average OD value (PC12 cells): 1.236 ± 0.085
Relative Cell Activity % (PC12 cells): 56.2%
Average Living Time [1]: 52.136 ± 0.415 h
Living time [2]: 14.4 ± 3.42 days

C=C1CC[C@@H]2[C@](C)(CCC[C@]2(C)C(=O)OC)[C@H]1CCC1=CCOC1=O [Pinusolide]
Average Living Time [1]: 54.003 ± 0.287 h
Living time [2]: 15.6 ± 2.74 days

C=C1CC[C@@H]2[C@](C)(CCC[C@]2(C)C(=O)O)[C@H]1CCC1=CCOC1=O [Pinusolidic acid]
average OD value (PC12 cells): 1.224 ± 0.057
Relative Cell Activity % (PC12 cells): 55.7%
Living time [2]: 13.8 ± 3.37 days

C=CC1(C)C=C2CCC3C(C)(CO)C(O)CCC3(C)C2CC1 (stereo not drawn) [Sandaracopimaradiene-3β,18-diol]
average OD value (PC12 cells): 1.652 ± 0.015
Relative Cell Activity % (PC12 cells): 75.1%
Living time [2]: 14.05 ± 3.49 days

C=C[C@]1(C)C=C2CC[C@@H]3[C@](C)(CCC[C@@]3(C)C(=O)O)[C@H]2CC1 [Sandaracopimaric acid]
Average Living Time [1]: 53.616 ± 0.443 h
Living time [2]: 15.85 ± 3.1 days

Isopinusolide
Average Living Time [1]: 53.988 ± 0.320 h
Living time [2]: 13.9 ± 3.65 days

Platyclolactonic Acid
Living time [2]: 13.95 ± 2.26 days

Platyclolactonic Acid Methyl Ester
Average Living Time [1]: 51.393 ± 0.487 h
Living time [2]: 14.3 ± 3.08 days
